# Reference: patent publication US20030175678A1, “Methods for identifying genes regulating desired cell phenotypes” (priority 2001, published 2003)
# Test system: C. acinaciformis suspension culture
# Experiment: Effect of methyl jasmonate on catechin accumulation in Crassula acinaciformis suspension culture
# Assay type: cell-based
# Conditions: M33 medium, added on day 7, by day 16
# Method: Catechin derivative profiles in the C. acinaciformis suspension culture were obtained from incubations in 250 mL conical flasks containing either 100 mL of M62 growth medium or 100 mL of a secondary metabolite production medium M33 (Murashige and Skoog (1962); modified to contain 5% sucrose and no hormones) inoculated with 40 mL of 21 day old suspension culture. The cultures were incubated under low light conditions (approximately 30 lux) at 25° C. […] 10 mL culture samples were taken at regular intervals for 16 days following the day of subculture to M33 medium. All culture samples were centrifuged for five minutes at 4000 rpm, and the cell residue was freeze-dried. Extraction, sample preparation, and HPLC analysis were performed as described in Example 1.
compound,measurement,value
CC/C=C\CC1C(=O)CCC1CC(=O)OC (stereo not shown) [methyl jasmonate],catechin level,approximate doubling of catechin level
